The IC50 is the point on the concentration scale where inhibition reaches its midpoint.

Data set [1] concerns C33A human cervical carcinoma. As to the kind of experiment: Cell viability, cellular ATP levels (Vialight HS). Conditions: C-33-A, read-out: IC50 C33A. The format is cell-based. From the text: (§1) The following cell lines were used: A549 human non-small cell lung carcinoma; C33A human cervical carcinoma; H1299 human non-small cell lung carcinoma; Hep-3B human hepatocellular carcinoma; MIA-Paca-2 human pancreatic carcinoma; PC-3 human prostatic adenocarcinoma (American Type Culture Collection, Manassas, Va., USA); HMEC normal human mammary epithelial cells; HUVEC normal human umbilical vein endothelial cells; and NHBE normal human bronchial epithelial cells (Cambrex Bio Science, Rockland, Me., USA). […] HMEC, HUVEC and NHBE cell lines were cultured in MEGM, EGM-2 and BEGM media, respectively (Cambrex Bio Science, Rockland, Me., USA). The cell lines were plated in 96-well microtitre plate at a density of 2–4×10^3 cells per well. After 16 hours, the cells were treated with various concentrations of Compound 50a or Compound 50b. Stock solutions of Compound 50a and Compound 50b, respectively, were prepared in dimethyl sulfoxide at a concentration of 5 mM. Serial dilutions were prepared in RPMI, 10% FBS and 2% DMSO and then added to the cells. The total DMSO in the cell cultures was 1%. […] The IC50s were determined using a best-fit sigmoidal dose response curve with variable slope.
(§2) The selected tumor cell lines included C33A human cervical carcinoma and H1299 human non-small cell lung carcinoma (American Type Culture Collection, Manassas, Va., USA). The cell lines were cultured in RPMI 1640 media supplemented with 10% FBS (Hyclone, Logan, Vt., USA), 100 U/mL penicillin, 100 μg/mL streptomycin and 2 mM L-glutamine (Invitrogen, Carlsbad, Calif., USA). The cell lines were plated in 96-well microtitre plate at a density of 2–4×10^3 cells per well. After 16 hours, the cells were treated with various concentrations of compound 66, 67, 68, 69 and 70, respectively. Stock solutions of compounds 66, 67, 68, 69 and 70 were prepared in dimethyl sulfoxide at a concentration of 5 mM. Serial dilutions were prepared in RPMI, 10% FBS and 2% DMSO and then added to the cells. The total DMSO on the cells was 1%. […] The IC50s were determined using a best-fit sigmoidal dose response curve with variable slope.

In data set [2] the test system is H1299 human non-small cell lung carcinoma. As to the kind of experiment: Cell viability, cellular ATP levels (Vialight HS). The class given is cell-based.
Text: as §1, §2

Data set [3] is classed as in vivo, CB17 SCID/SCID female mice. Conditions: day 34; i.p. 3.5 mg/kg once every 3 days for fifteen days. The protocol:
C33A cells were transplanted subcutaneously into the flank of female CB17 SCID/SCID mice. Each mouse was inoculated with a suspension of 2×10^6 tumor cells per 100 μL on day zero. The following six treatment groups of ten mice each were used: (a) a negative control group treated with intravenous (i.v.) injection of vehicle, (b) a negative control group treated with intraperitoneal (i.p.) injection of vehicle, (c) a positive control group treated with i.p. injection of Cisplatin, (d) a group treated with i.v. injection of a Compound 50, (e) a group treated with i.p. injection of Compound 50, and (f) a group treated with subcutaneous (s.c.) injection of Compound 50.
Treatment started on day thirteen after C33A cells transplantation for Compound 50 treated groups and on day fourteen for Cisplatin treated group. Compound 50 was administered i.v., i.p., and s.c. once daily for five consecutive days at a dose of 10, 15 and 30 mg/kg, respectively. Compound 50 was prepared as a working solution of 1.5 mg/mL in a vehicle solution of 20% Cremaphor EL (Sigma, St. Louis, Mo., USA), 10% Ethanol and 5% Dextrose (Abbot Laboratories, QC, Canada). The negative control groups were treated with vehicle alone. The positive control group was treated once every 3 days for fifteen days at a dose of 3.5 mg/kg. Cisplatin was formulated in PBS on each day of the injection and was administered i.p.
The mice were weighed and the tumors measured on day 13 and every 2 to 3 days after treatment commenced. Observations continued for 36 days after initial tumor implantation. The changes in body weight and in the calculated tumor volume were plotted (FIGS. 4 and 5). Statistical analysis was performed using GraphPad Prism (GraphPad Software Inc., San Diego, Calif.). Two-way ANOVA was used to determine how the treatment affected tumor growth over time. Following the two-way ANOVA, post-tests were performed using the Benferroni method to determine the statistical difference between the mean tumor-size of the two groups being compared on every day that the tumors were measured. […]

For data set [4], the system named is H1299 and C33A cancer cells versus HMEC and MRC-5 normal cells. The settings on record: 72 h; 1.6 μM Compound 48, 10 μM etoposide, 100 nM staurosporine. The protocol:
H1299 non-small cell lung carcinoma cells, C33A cervical carcinoma cells, Mrc-5 normal lung fibroblasts (American Type Culture Collection, Manassas, Va. USA) and HMEC normal mammary epithelial cells (Clonetics San Diego, Calif., USA) were cultured in RPMI 1640 media supplemented with 10% fetal calf serum (Sigma-Aldrich Inc., St. Louis, Mo. USA). The four cells lines were plated in 96-well microtiter plates (PerkinElmer Life Sciences Inc, Boston, Mass. USA) at a confluency that allowed them to reach confluence after 4 days of growth. One day after plating, the cells were treated either with 10 μM etoposide, 100 nM staurosporine or 1.6 μM of Compound 48. Stock solutions of each compound were prepared in dimethyl sulfoxide (Sigma-Aldrich Inc., St. Louis, Mo. USA), diluted in media then added to the cells. The total dimethyl sulfoxide on the cells was 1%. After 3 days of incubation, the ATP levels in the cells were quantified using the luminescent ViaLight detection system (Bio-Whittaker, Md., USA). The results were plotted relative to untreated control cells, which were set at 100.

In data set [5] the test system is SW480 human colon carcinoma cancer cells. As to the kind of experiment: SW480 colon carcinoma xenograft in SCID mice. The class given is in vivo, CB17 SCID/SCID female mice. Conditions: i.v. 50 mg/kg once daily for five days. The protocol: The resultant mice are a model for a human having colon carcinoma cancer.
The SW480 human colon carcinoma cancer cells were maintained in RPMI supplemented with 10% inactivated fetal bovine serum and 1% penicillin-streptomycin-L-Glutamine, under 5% CO2 at 37° C., and passaged twice a week. The cells were grown at a confluency lower than 70% and then collected with Trypsin (Bio-Whittaker, Md., USA). The cells were then centrifuged and washed twice using phosphate buffered saline solution (PBS) and resuspended in PBS at 1×10^6 cells per 100 μl. Viability was examined by staining with Trypan Blue and only flasks with cell viability of greater than 95% were used for in vivo studies.
(§3) SW480 cells were transplanted subcutaneously into the flank of female CB 17 SCID/SCID mice. Each mouse was inoculated with a suspension of 1×10^6 tumor cells per 100 μL on day zero. The following five treatment groups of ten mice each were used: (a) a negative control group treated with intravenous (i.v.) injection of vehicle, (b) a group treated with i.v. injection of a Compound 50, (c) a group treated with i.v. injection of a Compound 50a, (d) a group treated with i.v. injection of Compound 50b, (e) a group treated with i.v. injection of Compound 74a.
(§4) Treatment started on day twelve after SW480 cells transplantation and Compounds 50, 50a, 50b and 74a were administered i.v. once daily for five consecutive days at a dose of 10, 10, 10 and 50 mg/kg, respectively. Compound 50, 50a and 50b were prepared as a working solution of 1.5 mg/mL in a vehicle solution of 20% Cremaphor EL (Sigma, St. Louis, Miss., USA), and 10% Ethanol. Compound 74a was prepared as a working solution of 5 mg/mL in a vehicle solution of 5% Dextrose (Abbot Laboratories, QC, Canada). The negative control groups were treated with vehicle solution of 20% Cremaphor EL and 10% Ethanol alone.
(§5) The mice were weighed and the tumors measured on day 12 and every 2 to 3 days after treatment commenced. Observations continued for 23 days after initial tumor implantation. The changes in body weight and in the calculated tumor volume were plotted (FIGS. 9 and 10). Statistical analysis was performed using GraphPad Prism (GraphPad Software Inc., San Diego, Calif.). Two-way ANOVA was used to determine how the treatment affected tumor growth over time. Following the two-way ANOVA, post-tests were performed using the Benferroni method to determine the statistical difference between the mean tumor-size of the two groups being compared on every day that the tumors were measured.

Data set [6] in a line: Body weight of SW480 tumor-bearing mice. The class given is in vivo, CB17 SCID/SCID female mice. The settings on record: i.v. once daily for five days; 10 mg/kg (50, 50a, 50b), 50 mg/kg (74a). The protocol: as §3, §4, §5
The mark [7] stands for this setting: NCI-H1299, Table 7, cellular ATP levels, read-out: IC50 H1299.
[8] abbreviates: Table 6, ATP levels 72 h post-treatment vs untreated cells.
Where [9] appears, read: NCI-H1299, Table 6, ATP levels 72 h post-treatment vs untreated cells, read-out: IC50 H1299.
Where [10] appears, read: NCI-H1299, Table 8, cellular ATP levels, read-out: IC50 H1299.

Structures are written as SMILES. Like-named read-outs stand apart in the source and are kept apart here.

Take `CC1(C)C(=O)C=CC2(C)C1=C(O)C(=O)c1ccc(O)cc12` (stereo not shown) [Compound 76]: the IC50 turned out to be 200 nM in data set [1] (Table 7, cellular ATP levels) and 302 nM in data set [2] (setting [7]). Regarding `CCC1(C)C(=O)C=CC2(C)C1=C(O)C(=O)c1ccc(OC)cc12` (stereo not shown) [Compound 66], the IC50 worked out at 1550 nM in data set [1] (setting [8]) and 1440 nM in data set [2] (setting [9]). For `COC(=O)C1=CC2(C)C(=C(O)C(=O)c3ccc(OC)cc32)C(C)(C)C1=O` (stereo not shown) [Compound 69], the IC50 in data set [1] (setting [8]) was found to be 870 nM; in data set [2] (setting [9]), 1360 nM. For `COc1ccc2c(c1)C1(C)C=CC(=O)C(C)(C)C1C(=O)C2=O` (stereo not shown) [Compound 70] the same measures were 15900 nM and 16800 nM. For the compound `CCOP(=O)(OCC)OC1=C2C(C)(C)C(=O)C=CC2(C)c2cc(OC)ccc2C1=O` (stereo not shown) [Compound 72], the IC50 was 212 nM in data set [1] and 997 nM in data set [2] (NCI-H1299, read-out: IC50 H1299). The compound `N.N.[Cl][Pt][Cl]` [Cisplatin, reference compound] had a Weight loss in data set [3] of 19%. As to `COc1ccc2c(c1)C1(C)C=CC(=O)C(C)(Cc3ccccc3)C1=C(O)C2=O` (stereo not shown) [Compound 68], the results for the IC50 in data set [1] (setting [8]) and in data set [2] (setting [9]) were 2530 nM and 2070 nM, respectively. On to `COc1ccc2c(c1)C1(C)C(=C(O)C2=O)C(C)(C)C(=O)CC1SCC(NC(C)=O)C(=O)O` (stereo not shown) [Compound 80], for which the IC50 in data set [1] (Table 8, cellular ATP levels) came to 216 nM; in data set [2] (setting [10]), 208 nM.

In the case of `COc1cc2c(cc1C)C(=O)C(O)=C1C(C)(C)C(=O)C=CC12C` (stereo not shown) [Compound 48, 10-Hydroxy-6-methoxy-1,1,4a,7-tetramethyl-1H,4aH-phenanthrene-2,9-dione], in data set [4], the “Selective cytotoxicity towards cancer cells” value was “selectively cytotoxic towards cancer cells”. In the case of `COc1ccc2c(c1)[C@@]1(C)C=CC(=O)C(C)(C)C1=C(OP(=O)(O)O)C2=O` [Compound 74a], in data set [5], the “Tumor growth compared to vehicle” value is “significantly reduction (p<0.001)”. Also, the “Change in body weight” value in data set [6] is listed as “non-significant change in body weight”.

In the case of `COc1ccc2c(c1)C1(C)C(=C(O)C2=O)C(C)(C)C(=O)CC1SCC(NC(=O)CCC(N)C(=O)O)C(=O)NCC(=O)O` (stereo not shown) [Compound 81], the half-maximal inhibitory concentration (IC50) is 186 nM in data set [1] (Table 8, cellular ATP levels) and 155 nM in data set [2] (setting [10]). As for `COc1ccc2c(c1)C1(C)C=CC(=O)C(C)(C)C1=C(OP(=O)(OCc1ccccc1)OCc1ccccc1)C2=O` (stereo not shown) [Compound 73], the IC50 in data set [1] (Table 7, cellular ATP levels) came out at 655 nM; in data set [2] (setting [7]), 1540 nM. Regarding `C=CCC1(C)C(=O)C=CC2(C)C1=C(O)C(=O)c1ccc(OC)cc12` (stereo not shown) [Compound 67], the results for the IC50 in data set [1] (setting [8]) and in data set [2] (setting [9]) were 1190 nM and 950 nM, respectively. Consider `COc1cc([C@@H]2c3cc4c(cc3[C@@H](O[C@@H]3O[C@@H]5CO[C@@H](C)O[C@H]5[C@H](O)[C@H]3O)[C@H]3COC(=O)[C@H]23)OCO4)cc(OC)c1O` [etoposide], for which, in data set [4], the “Selective cytotoxicity towards cancer cells” value was “selectively cytotoxic towards cancer cells”.

These data come from patent US7230139B2, “Diterpenoid compounds, compositions thereof and their use as anti-cancer or anti-fungal agents” (priority 2004, dated 2007).
